One experiment relates to Common Barnyardgrass. In words: Field test, post emergence weed control: Common Barnyardgrass. In kind it is in vivo, Echinochloa crus-galli. The conditions noted are these: 12 DAT, MSO 1% v/v. The method, then: (§1) The following field test was conducted during spring in Mississippi. Sharpen® was used in the test as the source of saflufenacil. Valor® was used in the test as the source of flumioxazin. Roundup Ready soybeans (Glycine max) were used in the test as the crop plant. All of the treatments contained MSO concentrate oil at 1% v/v.
(§2) When the test began, the test plot had Horseweed that was 6 to 20 inches tall. Applications were administered at the concentrations as follows. Saflufenacil was administered at 0.011, 0.017 or 0.022 lb ai/acre (indicated in the table as “S” followed by the amount). Flumioxazin was administered at 0.064 lb ai/acre, and 2,4-D was administered at 0.5 lb ai/acre throughout the experiment. Three days after the treatment (3 DAT), soybeans were planted across the front of the plot. On 7 DAT, another pass of soybeans was planted across the front of the plot with a 30 inch planter. Each test was
(§3) On 11 DAT, readings were taken to determine the survival of Horseweed and Crabgrass. On 12 DAT, readings were taken to determine the survival of Palmer Amaranth, Broadleaf Signalgrass, Common Barnyardgrass, Yellow Nutsedge, and Eclipta. Survival ratings were taken by counting the number of alive and dead plants at the time of the reading. The pytotoxicity of each treatment was also evaluated by examining the soybeans at 11 and 12 DAT. All data was analyzed using Bartlett's test and with p value of […] for determining significance of the results. The Effect of Saflufenacil, Flumioxazin and 2,4-D on Weeds.”

In a further experiment the test system is Broadleaf Signalgrass. The experiment can be described thus: Field test, post emergence weed control: Broadleaf Signalgrass. Type of experiment: in vivo, Brachiaria platyhylla. Conditions: 12 DAT, MSO 1% v/v. The protocol: as §1, §2, §3
For a further experiment, the system named is Yellow Nutsedge. In words: Field test, post emergence weed control: Yellow Nutsedge. Type of experiment: in vivo, Cyperus esculentus. Conditions: 12 DAT, MSO 1% v/v. The method, then:
as §1, §2, §3

In the next experiment the test system is Palmer Amaranth. In words: Field test, post emergence weed control: Palmer Amaranth. Type of experiment: in vivo, Amaranthus palmeri. Conditions: 12 DAT, MSO 1% v/v. The method, then:
as §1, §2, §3

The next experiment concerns Eclipta. In words: Field test, post emergence weed control: Eclipta. In kind it is in vivo, Eclipta prostrata. Conditions: 12 DAT, MSO 1% v/v. The protocol:
as §1, §2, §3

A further experiment relates to Horseweed. The experiment can be described thus: Field test, post emergence weed control: Horseweed. In kind it is in vivo, Conyza Canadensis. The conditions noted are these: for Effect on Weeds, Plants: Horseweed: 11 DAT, MSO 1% v/v; for control (Actual % Control) / % Alone: Horseweed; for control (Actual % Control): rounded Table 1 values, saflufenacil 0.011, flumioxazin 0.064, 2,4-D 0.5 lb ai/acre as present; for % Alone: synergy calculation, each component alone (saflufenacil 0.011, 2,4-D 0.5, flumioxazin 0.064 lb ai/acre). The method, then: as §1, §2, §3
Applicants used the widely accepted fraction method for determining synergy. The fraction method involves not merely adding together the individual control percentages together, as that will often be greater than 100%. The fraction method involves taking the control as a decimal value (X), multiplying the 1 minus X values together, then taking the “1 minus” value to get the calculated control as a decimal value. For example, if two products give 60% control, the additive or predicted value would be 84% and not 120%. See Rao, V. S., Principles of Weed Science, Second Edition, (2000) 351-352, and the illustrative example below.

A further experiment deals with Large Crabgrass. The experiment can be described thus: Field test, post emergence weed control: Large Crabgrass. In kind it is in vivo, Digitaria sanguinalis. Conditions: 11 DAT, MSO 1% v/v. The protocol: as §1, §2, §3
The mark [1] stands for this setting: no saflufenacil, flumioxazin 0.064 lb ai/acre, 2,4-D 0.5 lb ai/acre.
Setting [2] is: saflufenacil 0.011 lb ai/acre (flumioxazin 0.064, 2,4-D 0.5 lb ai/acre where in the treatment).
Where [3] appears, read: saflufenacil 0.017 lb ai/acre (flumioxazin 0.064, 2,4-D 0.5 lb ai/acre where in the treatment).
Where [4] appears, read: saflufenacil 0.022 lb ai/acre (flumioxazin 0.064, 2,4-D 0.5 lb ai/acre where in the treatment).

Consider `O=C(O)COc1ccc(Cl)cc1Cl` [2,4-D, 2,4-Dichlorophenoxyacetic acid], for which, in the experiment on Common Barnyardgrass (setting [1]), the “Effect on Weeds, Plants: Common Barnyardgrass” value (“Effect … Common Barnyardgrass” for short) turned out to be 15.0. The “Effect on Weeds, Plants: Broadle Signalgrass” value (from here on “Effect … Broadle Signalgrass”) in the experiment on Broadleaf Signalgrass (setting [1]) turned out to be 21.7. In the experiment on Yellow Nutsedge (setting [1]), the “Effect on Weeds, Plants: Yellow Nutsedge” value was 8.3. In the experiment with Palmer Amaranth (setting [1]), the “Effect on Weeds, Plants: Palmer Amaranth” value was determined as 91.0. Moreover, the “Effect on Weeds, Plants: Eclipta” value with Eclipta (setting [1]) is 91.0. In the experiment with Horseweed (setting [1]), the “Effect on Weeds, Plants: Horseweed” value is 11.7. Also, in the experiment with Horseweed, the “control (Actual % Control)” value is 12% and the “% Alone” value is reported as 12.00%. Besides, in the experiment on Large Crabgrass (setting [1]), the “Effect on Weeds, Plants: Large Crabgrass” value was found to be 50.0.

As to `C#CCN1C(=O)COc2cc(F)c(N3C(=O)C4=C(CCCC4)C3=O)cc21` [Flumioxazin, 2-[7-fluoro-3,4-dihydro-3-oxo-4-(2-propynyl)-2H-1,4-benzoxazin-6-yl]-4,5,6,7-tetrahydro-1H-isoindole-1,3(2H)-dione], the “Effect … Common Barnyardgrass” value in the experiment with Common Barnyardgrass (setting [1]) stood at 45.0. In the experiment with Broadleaf Signalgrass (setting [1]), the “Effect … Broadle Signalgrass” value was determined as 45.0. Further, the “Effect on Weeds, Plants: Yellow Nutsedge” value in the experiment with Yellow Nutsedge (setting [1]) came to 42.5. In addition, the “Effect on Weeds, Plants: Palmer Amaranth” value with Palmer Amaranth (setting [1]) is given as 96.0. The “Effect on Weeds, Plants: Eclipta” value in the experiment on Eclipta (setting [1]) was determined as 86.3. In addition, the “Effect on Weeds, Plants: Horseweed” value with Horseweed (setting [1]) came out at 15.0. In the experiment with Horseweed, the “control (Actual % Control)” value is 15% and the “% Alone” value is reported as 15.00%. For the same compound, the “Effect on Weeds, Plants: Large Crabgrass” value in the experiment with Large Crabgrass (setting [1]) was 70.0.

`CC(C)N(C)S(=O)(=O)NCc1cc(-n2c(=O)cc(C(F)(F)F)n(C)c2=O)c(F)cc1Cl` [S, N′-[2-chloro-4-fluoro-5-(3-methyl-2,6-dioxo-4-(trifluoromethyl)-3,6-dihydro-1(2H)-pyrimidinyl)benzyl]-N-isopropyl-N-methylsulfamide]: the “Effect … Common Barnyardgrass” value in the experiment with Common Barnyardgrass (setting [2]) is reported as 31.7; with Common Barnyardgrass (setting [3]), 41.7; with Common Barnyardgrass (setting [4]), 25.0. Moreover, the “Effect … Broadle Signalgrass” value in the experiment with Broadleaf Signalgrass (setting [2]) is reported as 31.7; with Broadleaf Signalgrass (setting [3]), 45.0; with Broadleaf Signalgrass (setting [4]) it was 31.7. The “Effect on Weeds, Plants: Yellow Nutsedge” value in the experiment on Yellow Nutsedge (setting [2]) was 23.3; with Yellow Nutsedge (setting [3]), 35.0; in the experiment on Yellow Nutsedge (setting [4]), 30.0. Besides, the “Effect on Weeds, Plants: Palmer Amaranth” value in the experiment with Palmer Amaranth (setting [2]) is given as 91.0; in the experiment on Palmer Amaranth (setting [3]), 91.3; in the experiment with Palmer Amaranth (setting [4]), 96.0. Besides, the “Effect on Weeds, Plants: Eclipta” value with Eclipta (setting [2]) is 83.0; with Eclipta (setting [3]), 91.3; in the experiment with Eclipta (setting [4]), 93.0. Moreover, the “Effect on Weeds, Plants: Horseweed” value with Horseweed (setting [2]) is listed as 66.7; with Horseweed (setting [3]) it was 78.3; in the experiment with Horseweed (setting [4]), 86.7. In addition, the “control (Actual % Control)” value in the experiment with Horseweed was 67%. For the same compound, in the experiment on Horseweed, the “% Alone” value is recorded as 67.00%. The figures for the “Effect on Weeds, Plants: Large Crabgrass” value with Large Crabgrass (setting [2]), with Large Crabgrass (setting [3]) and in the experiment on Large Crabgrass (setting [4]) were 43.3, 60.0 and 56.7, respectively.

Values taken from patent US9585393B2, “Saflufenacil, flumioxazin, and 2,4-D weed control compositions and methods of use thereof” (Valent U.S.A., Corporation, priority 2014, dated 2017).
